According to the NIST ThermoML archive (doi:10.1016/j.fluid.2004.11.025):
± gives the expanded uncertainty stated by the source.

Columns and labels:
[1] = refractive index (Na D-line) (dimensionless); details: 298.15 K; 101.33 kPa; Liquid; Standard Abbe refractometry
[2] = Liquid; for mass density: 293.15 K, 101.33 kPa; for Normal boiling temperature: Fischer boiling point apparatus

CC(=O)O [acetic acid]
refractive index [1]: 1.3713 ± 0.0007
mass density [2]: 1049.42 ± 0.29 kg/m3
Normal boiling temperature [2]: 118.1 ± 0.2 °C

O [water]
refractive index [1]: 1.3324 ± 0.0007

COC(=O)CCCCC(=O)OC [dimethyl 1,6-hexanedioate]
refractive index [1]: 1.4215 ± 0.0012
mass density [2]: 1061.9 ± 0.61 kg/m3
Normal boiling temperature [2]: 225.1 ± 0.2 °C
